Measured values reported in US9980943B2, “Methods of treating muscular dystrophy” (BOARD OF REGENTS OF THE NEVADA SYSTEM OF HIGHER EDUCATION, …, priority 2013, dated 2018).

Assays:
Format in all cases: cell-based, mouse
[1] = tested on: β-galactosidase in CMV-LacZ C2C12 myoblasts; test: CMV-LacZ secondary screen in C2C12 myoblasts (β-Gal stabilizing assay); details: CMV-LacZ C2C12 myoblasts
How it was run: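 First, C2C12 myoblasts were transfected with a linearized CMV-LACZ vector and clonal lines selected by FDG β-gal assay. Then cells were exposed to compounds at 0.5, 1, 5, 10, 20 and 40 μM in 96-well format, two replicates each, and β-gal measured.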

[2] = tested on: α7 integrin (LacZ reporter in α7+/LacZ myotubes); test: Myotube α7 integrin FDG assay (Burkin assay in myotubes, 96-well); details: myotubes
[3] = tested on: β-galactosidase in CMV-LacZ C2C12 myotubes; test: CMV-LacZ secondary screen in C2C12 myotubes (β-Gal stabilizing assay); details: C2C12 CMV-LacZ myotubes, fold relative to DMSO
How it was run: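 A secondary screen identifies compounds that stabilize β-gal independently of the native promoter, using CMV-LacZ C2C12 cells. Curves span 0.5–40 μM at six levels, in duplicate.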

[4] = tested on: α7 integrin (LacZ reporter in α7βgal+/− myoblasts); test: Myoblast α7+/LacZ integrin FDG assay (Burkin assay in myoblasts, 96-well); details: α7+/LacZ myoblasts, 96-well

SMILES	CMV-LACZ in Myoblasts (β-galactosidase activity relative to DMSO) ([1]; 0.5 uM)	CMV-LACZ in Myoblasts (β-galactosidase activity relative to DMSO) ([1]; 1 uM)	CMV-LACZ in Myoblasts (β-galactosidase activity relative to DMSO) ([1]; 5 uM)	CMV-LACZ in Myoblasts (β-galactosidase activity relative to DMSO) ([1]; 10 uM)	CMV-LACZ in Myoblasts (β-galactosidase activity relative to DMSO) ([1]; 20 uM)	CMV-LACZ in Myoblasts (β-galactosidase activity relative to DMSO) ([1]; 40 uM)	Burkin Assay in Myotubes, α7 integrin LacZ reporter signal relative to DMSO ([2]; 0.5 uM)	Burkin Assay in Myotubes, α7 integrin LacZ reporter signal relative to DMSO ([2]; 1 uM)	Burkin Assay in Myotubes, α7 integrin LacZ reporter signal relative to DMSO ([2]; 5 uM)	Burkin Assay in Myotubes, α7 integrin LacZ reporter signal relative to DMSO ([2]; 10 uM)	Burkin Assay in Myotubes, α7 integrin LacZ reporter signal relative to DMSO ([2]; 20 uM)	Burkin Assay in Myotubes, α7 integrin LacZ reporter signal relative to DMSO ([2]; 40 uM)	CMV-LACZ in Myotubes, signal relative to DMSO ([3]; 0.5 uM)	CMV-LACZ in Myotubes, signal relative to DMSO ([3]; 1 uM)	CMV-LACZ in Myotubes, signal relative to DMSO ([3]; 5 uM)	CMV-LACZ in Myotubes, signal relative to DMSO ([3]; 10 uM)	CMV-LACZ in Myotubes, signal relative to DMSO ([3]; 20 uM)	CMV-LACZ in Myotubes, signal relative to DMSO ([3]; 40 uM)	Burkin Assay in Myoblasts, signal relative to DMSO ([4]; 0.5 uM)	Burkin Assay in Myoblasts, signal relative to DMSO ([4]; 1 uM)	further results
CN(CC(=O)Nc1cccc(F)c1)C(=O)c1ccc(-c2ccc(Cl)cc2)o1 [MLS001078811-01]	1.2397	1.2290	0.7927	0.6873	0.8393	0.9014	0.9163	0.9064	0.9816	0.8773	0.6307	0.4598	0.8486	0.9086	1.1571	0.9981	1.0510	0.6710	0.9376	0.9926	Burkin Assay in Myoblasts, signal relative to DMSO ([4]; 5 uM): 0.9583; Burkin Assay in Myoblasts, signal relative to DMSO ([4]; 10 uM): 0.891; Burkin Assay in Myoblasts, signal relative to DMSO ([4]; 20 uM): 1.681; Burkin Assay in Myoblasts, signal relative to DMSO ([4]; 40 uM): 0.7411
COc1ccccc1C(=O)Nc1ccnn1C1CCN(C(=O)c2ccoc2)CC1 [MLS001083082-01]	0.8591	0.9234	1.0409	1.1713	0.9615	0.8144	1.035	0.9411	1.07	1.05	0.8987	0.937	0.9615	1.0326	0.9984	0.9776	1.0282	1.1165	0.9036	0.9516	Burkin Assay in Myoblasts, signal relative to DMSO ([4]; 5 uM): 1.058; Burkin Assay in Myoblasts, signal relative to DMSO ([4]; 10 uM): 1.023; Burkin Assay in Myoblasts, signal relative to DMSO ([4]; 20 uM): 1.014; Burkin Assay in Myoblasts, signal relative to DMSO ([4]; 40 uM): 0.9468
O=C1CCC(C(=O)N2CCSCC2)CN1Cc1ccc(Cl)cc1 (stereo not drawn) [MLS001090787-01]	0.9196	0.9754	0.9700	0.8594	0.7533	0.5907	1.054	1.168	1.083	1.195	1.209	1.5544	1.0009	0.9055	1.0126	1.1178	0.8990	0.9450	1.142	0.9734	Burkin Assay in Myoblasts, signal relative to DMSO ([4]; 5 uM): 1.263; Burkin Assay in Myoblasts, signal relative to DMSO ([4]; 10 uM): 1.46; Burkin Assay in Myoblasts, signal relative to DMSO ([4]; 20 uM): 1.265; Burkin Assay in Myoblasts, signal relative to DMSO ([4]; 40 uM): 1.222
COC(=O)c1cc(S(=O)(=O)NCC2CCN(Cc3ccc(Cl)cc3)CC2)cn1C [MLS001095033-01]	0.9488	0.9179	0.9043	1.0269	0.9359	0.9811	0.9959	0.9488	0.944	0.9298	0.8938	0.9158	1.2895	1.0867	1.0230	1.0031	1.0326	1.0358	1.281	1.186	Burkin Assay in Myoblasts, signal relative to DMSO ([4]; 5 uM): 0.9632; Burkin Assay in Myoblasts, signal relative to DMSO ([4]; 10 uM): 0.9614; Burkin Assay in Myoblasts, signal relative to DMSO ([4]; 20 uM): 1.125; Burkin Assay in Myoblasts, signal relative to DMSO ([4]; 40 uM): 1.0618
COc1ccc(OC)c(S(=O)(=O)Nc2c(NC3CCCCC3)c3ccccc3oc2=O)c1 [MLS001095705-01]	1.2060	1.2293	0.6476	0.7229	1.1400	1.1723	0.9916	0.9463	1.073	0.8798	0.9411	0.7937	0.9486	0.9933	1.1898	1.3164	1.2020	1.0800	0.7873	0.8788	Burkin Assay in Myoblasts, signal relative to DMSO ([4]; 5 uM): 1.295; Burkin Assay in Myoblasts, signal relative to DMSO ([4]; 10 uM): 0.969; Burkin Assay in Myoblasts, signal relative to DMSO ([4]; 20 uM): 0.7917; Burkin Assay in Myoblasts, signal relative to DMSO ([4]; 40 uM): 0.7284
